Key:
[1] = tested on: lesion region having an aldosterone-producing tumor site (human adrenal section); assay: In vitro autoradiography using human adrenal tumor: binding ability to lesion region; conditions: for B2, binding ability to a lesion region, ratio to reference compound: relative to [123I]IMTO = 1, human plasma, 37° C., 10 minutes; for concentration shown at the lesion sites on autoradiograms (FIG. 1): Samples 1 to 6, compared with Compound [18F]100
Protocol: (§1) By using a frozen human adrenal tissue specimen containing a lesion region having an aldosterone-producing tumor site, and a normal region in an adjacent part to the lesion region, in vitro autoradiography was performed. Specifically, a slide glass on which a section prepared by embedding the specimen in an embedding medium for preparing a frozen tissue section (Tissue-Tek O.C.T. Compound, manufactured by Sakura Finetek Japan Co., Ltd.), and thinly cutting the embedded specimen of human adrenal tissue to have a thickness of 7 μm had been pasted (stored at −80° C., hereinafter, referred to as human adrenal section) was used for experiment.
(§2) A solution of each of Compounds [^18F]100, [^18F]101, [^18F]102, and […], which had been obtained in Reference Example 2, Example 2, 4, or 6, and Compound [^123I]IMTO (reference compound) was dispensed into a vial, and the amount of radioactivity was measured by a radioisotope dose calibrator (CRC-15R, manufactured by Capintec, Inc.) The radioactive concentration of a solution that had been prepared by adding each solution obtained above to human plasma (hereinafter referred to as reaction mixture) was measured by using an autowell gamma system (ARC-7001, manufactured by Hitachi, Ltd.).
(§3) For preincubation, a human adrenal section was immersed in phosphate-buffered saline (PBS) at 37° C. for 5 minutes, and then immersed in human plasma at 37° C. for 5 minutes. Next, as a reaction step, the human adrenal section was immersed in the reaction mixture at 37° C. for 10 minutes. After that, the human adrenal section was washed with human plasma five times at 37° C. for 2 minutes, and then air-dried. Further, a piece of filter paper, which had been cut out into a circular shape and had been pasted on a slide glass, was impregnated with a known amount of the reaction mixture, and then air dried, and the resultant piece was used as a standard radiation source.
(§4) The air-dried human adrenal section and the air-dried standard radiation source were exposed to an imaging plate (BAS-SR2040, manufactured by Fujifilm Corporation) (IP sheet), and autoradiograms were obtained by a fluoro image analyzer (Typhoo FLA 7000 IP, manufactured by GE Healthcare Japan Corporation). A region of interest (ROI) was set in each of the lesion region and normal region obtained on the autoradiograms, and the radiation count was determined. The ROI was also set for the standard radiation source, and the radiation count was determined.
(§5) For the autoradiograms obtained for the human adrenal section, the radiation count (correction value) of each region (lesion region or normal region) was determined as in formula (1) as a correction value to the standard radiation source.
(§6) The binding ability of the compound according to the present invention (each of Compounds [^18F]101, [^18F]102, and [^18F]103) to each region (lesion region or normal region) was determined as in formulas (2) and (3) as the relative value in a case where the radiation count (correction value) in each region of ^[123I]IMTO (reference compound) was set to 1. Further, the lesion/normal ratio was determined as in formula (4).

[2] = tested on: normal region in an adjacent part to the lesion region (human adrenal section); assay: In vitro autoradiography using human adrenal tumor: binding ability to normal region; conditions: relative to [123I]IMTO = 1, human plasma, 37° C., 10 minutes
Protocol: as §1, §2, §3, §4, §5, §6

[3] = Pharmacokinetic distribution experiment (PET, SUV of liver, kidney, spleen); type: in vivo, normal rats; conditions: FIG. 2; for radioactivity accumulation in tissues (the liver, kidney, and spleen) surrounding the adrenal glands: PET SUV at 60 minutes and 180 minutes after the administration; for high radioactivity accumulation that would be an obstacle in the adrenal gland imaging: liver, kidney, spleen, 60 and 180 minutes after the administration
Protocol: The compounds according to the present invention (Compounds [^18F]101, [^18F]102, and [^18F]103) were administered to three normal rats without anesthesia. Imaging data for 15 minutes under isoflurane anesthesia were collected at 60 minutes and 180 minutes after the administration. The imaging data were subjected to image reconstruction by a positron emission tomography (PET) device (instrument: eXplore VISTA, manufactured by GE Healthcare Japan Corporation), and then a volume of interest (VOI) was set in each of the liver, kidney, and spleen, and a standardized uptake value (SUV) of each tissue was determined as in formula (5).

| SMILES | B2/B1, lesion/normal ratio ([1]; Sample 1) | B2, binding ability to a lesion region, ratio to reference compound ([1]; Sample 1) | B2/B1, lesion/normal ratio ([1]; Sample 2) | B2, binding ability to a lesion region, ratio to reference compound ([1]; Sample 2) | B2/B1, lesion/normal ratio ([1]; Sample 3) | B2, binding ability to a lesion region, ratio to reference compound ([1]; Sample 3) | B2/B1, lesion/normal ratio ([1]; Sample 4) | B2, binding ability to a lesion region, ratio to reference compound ([1]; Sample 4) | B2/B1, lesion/normal ratio ([1]; Sample 5) | B2, binding ability to a lesion region, ratio to reference compound ([1]; Sample 5) | B2/B1, lesion/normal ratio ([1]; Sample 6) | B2, binding ability to a lesion region, ratio to reference compound ([1]; Sample 6) | concentration shown at the lesion sites on autoradiograms (FIG. 1) [1] | B1, binding ability to a normal region, ratio to reference compound ([2]; Sample 1) | B1, binding ability to a normal region, ratio to reference compound ([2]; Sample 2) | B1, binding ability to a normal region, ratio to reference compound ([2]; Sample 3) | B1, binding ability to a normal region, ratio to reference compound ([2]; Sample 4) | B1, binding ability to a normal region, ratio to reference compound ([2]; Sample 5) | B1, binding ability to a normal region, ratio to reference compound ([2]; Sample 6) | radioactivity accumulation in tissues (the liver, kidney, and spleen) surrounding the adrenal glands [3] | also measured |
| --- | --- | --- | --- | --- | --- | --- | --- | --- | --- | --- | --- | --- | --- | --- | --- | --- | --- | --- | --- | --- | --- |
| Fc1ccc2nc(-c3cncc(Cn4ccnc4)c3)n(CC[18F])c2c1 [Compound [^18F]101, 6-fluoro-1-(2-[^18F]fluoroethyl)-2-[5-(imidazol-1-ylmethyl)pyridin-3-yl]benzimidazole] | 14.44 | 0.19 | 19.66 | 0.24 | 8.44 | 0.32 | 8.28 | 0.21 | 14.94 | 0.13 | 37.80 | 0.45 | higher concentration than that of Compound [^18F]100 | 0.00 | 0.01 | 0.03 | 0.01 | 0.01 | 0.01 | decreased over time | high radioactivity accumulation that would be an obstacle in the adrenal gland imaging [3]: not observed |
| Fc1cc2nc(-c3cncc(Cn4ccnc4)c3)n(CC[18F])c2cc1F [Compound [^18F]102, 5,6-difluoro-1-(2-[^18F]fluoroethyl)-2-[5-(imidazol-1-ylmethyl)pyridin-3-yl]benzimidazole] | 6.78 | 0.19 | 8.69 | 0.31 | 8.20 | 0.65 | 4.32 | 0.41 | 9.21 | 0.14 | 23.93 | 0.63 | higher concentration than that of Compound [^18F]100 | 0.01 | 0.03 | 0.05 | 0.05 | 0.01 | 0.03 | decreased over time | high radioactivity accumulation that would be an obstacle in the adrenal gland imaging [3]: not observed |
| N#Cc1cc2c(cc1F)nc(-c1cncc(Cn3ccnc3)c1)n2CC[18F] [Compound [^18F]103, 2-[5-(1H-imidazol-1-ylmethyl)pyridin-3-yl]-5-fluoro-1-(2-[^18F]fluoroethyl)-1H-benzo[d]imidazole-6-carbonitrile] | 4.57 | 0.23 | 12.05 | 0.46 | 2.68 | 0.79 | 2.03 | 0.33 | 5.17 | 0.29 | 15.42 | 1.09 | higher concentration than that of Compound [^18F]100 | 0.02 | 0.04 | 0.20 | 0.08 | 0.04 | 0.07 | decreased over time | high radioactivity accumulation that would be an obstacle in the adrenal gland imaging [3]: not observed |

Reference: patent publication US11266753B2, “2-[5-(imidazol-1-ylmethyl)pyridin-3-yl]benzimtdazole derivative compound, and medicament including same” (Nihon Medi-Physics Co., Ltd., priority 2017, dated 2022)
